In US10030020B2, “Spirocycle compounds and methods of making and using same” (Abide Therapeutics, Inc., priority 2016, dated 2018):

How the values were obtained:
MAGL [1] = molecular target: T1, MAGL (Mus musculus (Mouse), UniProt O35678); assay: In vitro competitive activity-based protein profiling (mouse brain membrane fraction or cell lysates), MAGL band; type: biochemical; details: mouse proteome; for inhibition at 1 µM: read-out: MAGL % Inh 1 μM (mouse); for IC50: competitive ABPP
Method: In Vitro Competitive Activity-Based Protein Profiling.
Proteomes (mouse brain membrane fraction or cell lysates) (50 μL, 1.0 mg/mL total protein concentration) were preincubated with varying concentrations of inhibitors at 37° C. After 30 min, FP—Rh (1.0 μL, 50 μM in DMSO) was added and the mixture was incubated for another 30 min at 37° C. Reactions were quenched with SDS loading buffer (50 μL-4×) and run on SDS-PAGE.

ABHD6 [2] = molecular target: T2, ABHD6 (Mus musculus (Mouse), UniProt Q8R2Y0); assay: In vitro competitive activity-based protein profiling (mouse brain membrane fraction or cell lysates), ABHD6 band; type: biochemical; details: mouse proteome; for inhibition at 1 µM: read-out: ABHD6 % Inh 1 μM (mouse); for IC50: competitive ABPP
Summary of the method: (§1)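 Mouse proteome samples (brain membrane fraction or cell lysate, 1.0 mg/mL protein) were pretreated with varying inhibitor concentrations and subsequently probed with fluorophosphonate-rhodamine, each step lasting 30 min at 37° C. Labelled proteins were separated by SDS-PAGE, and band fluorescence was imaged and quantified.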

FAAH [3] = molecular target: T3, FAAH (Mus musculus (Mouse), UniProt O08914); assay: In vitro competitive activity-based protein profiling (mouse brain membrane fraction or cell lysates), FAAH band; type: biochemical; details: mouse proteome; for inhibition at 1 µM: read-out: FAAH % Inh 1 μM (mouse); for IC50: competitive ABPP
Summary of the method: as §1

MAGL [4] = molecular target: T1, MAGL; assay: Mouse brain proteomes from inhibitor treated mice (oral gavage, sacrificed 4 h after administration, ABPP analysis); type: in vivo, mouse (C57Bl/6J); details: 5 mg/kg oral gavage
Summary of the method: (§2)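 Values give % inhibition in brain after a 5 mg/kg oral gavage dose to wild-type C57Bl/6J mice, with vehicle e.g. PEG400/Ethanol/PBS (7/2/1). Animals were killed 4 h post-dose and brain proteome activity was read by ABPP.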

FAAH [5] = molecular target: T3, FAAH; assay: Mouse brain proteomes from inhibitor treated mice (oral gavage, sacrificed 4 h after administration, ABPP analysis), FAAH; type: in vivo, mouse (C57Bl/6J); details: 5 mg/kg oral gavage
Summary of the method: as §2

ABHD6 [6] = molecular target: T2, ABHD6; assay: Mouse brain proteomes from inhibitor treated mice (oral gavage, sacrificed 4 h after administration, ABPP analysis), ABHD6; type: in vivo, mouse (C57Bl/6J); details: 5 mg/kg oral gavage
Summary of the method: as §2

T2 sequence (Q8R2Y0 whole entry): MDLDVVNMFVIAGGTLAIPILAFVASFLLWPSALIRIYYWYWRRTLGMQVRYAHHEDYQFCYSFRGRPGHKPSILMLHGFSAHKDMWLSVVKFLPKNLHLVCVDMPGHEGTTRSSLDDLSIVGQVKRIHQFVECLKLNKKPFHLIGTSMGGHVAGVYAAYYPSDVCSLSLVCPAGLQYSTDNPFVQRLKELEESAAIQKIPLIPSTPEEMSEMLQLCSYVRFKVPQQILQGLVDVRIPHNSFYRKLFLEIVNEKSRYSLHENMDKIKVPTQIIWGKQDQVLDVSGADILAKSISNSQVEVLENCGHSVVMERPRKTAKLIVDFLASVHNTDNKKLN
T3 sequence (O08914 whole entry): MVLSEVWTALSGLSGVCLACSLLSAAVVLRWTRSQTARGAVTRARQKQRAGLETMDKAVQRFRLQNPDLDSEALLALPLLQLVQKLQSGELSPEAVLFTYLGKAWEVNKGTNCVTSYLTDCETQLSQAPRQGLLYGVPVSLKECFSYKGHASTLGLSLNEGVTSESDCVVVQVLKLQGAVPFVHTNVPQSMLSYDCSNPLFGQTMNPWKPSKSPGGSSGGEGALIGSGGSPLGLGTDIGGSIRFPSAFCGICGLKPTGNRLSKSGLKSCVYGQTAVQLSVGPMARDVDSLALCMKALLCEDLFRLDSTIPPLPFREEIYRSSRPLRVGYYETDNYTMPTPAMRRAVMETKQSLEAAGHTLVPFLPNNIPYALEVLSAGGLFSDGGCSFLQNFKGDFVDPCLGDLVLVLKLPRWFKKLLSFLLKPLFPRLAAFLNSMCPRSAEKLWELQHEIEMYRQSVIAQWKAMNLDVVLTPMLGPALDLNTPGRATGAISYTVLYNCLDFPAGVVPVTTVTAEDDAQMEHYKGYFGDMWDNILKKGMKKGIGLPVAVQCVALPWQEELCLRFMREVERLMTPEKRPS
T1 sequence (O35678 whole entry): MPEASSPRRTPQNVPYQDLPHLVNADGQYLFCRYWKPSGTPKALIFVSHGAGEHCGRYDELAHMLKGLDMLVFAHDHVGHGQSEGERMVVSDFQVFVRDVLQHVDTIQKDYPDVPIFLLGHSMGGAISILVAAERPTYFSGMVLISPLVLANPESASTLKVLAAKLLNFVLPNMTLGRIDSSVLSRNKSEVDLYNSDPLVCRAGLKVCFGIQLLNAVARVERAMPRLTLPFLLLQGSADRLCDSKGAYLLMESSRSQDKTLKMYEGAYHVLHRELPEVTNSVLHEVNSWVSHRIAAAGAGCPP

| SMILES | inhibition at 1 µM (MAGL [1]) | IC50 (MAGL [1]) | inhibition at 1 µM (ABHD6 [2]) | IC50 (ABHD6 [2]) | inhibition at 1 µM (FAAH [3]) | IC50 (FAAH [3]) | MAGL % Inh 5 mg/kg (mouse) (MAGL [4]) | FAAH % Inh 5 mg/kg (mouse) (FAAH [5]) | ABHD6 % Inh 5 mg/kg (mouse) (ABHD6 [6]) |
| --- | --- | --- | --- | --- | --- | --- | --- | --- | --- |
| O=C(OC(C(F)(F)F)C(F)(F)F)N1CCC2(CCCN2Cc2ccc(C(F)(F)F)cc2N2CC3CCC(C2)O3)CC1 [Example 73, 1,1,1,3,3,3-Hexafluoropropan-2-yl 1-(2-(8-oxa-3-azabicyclo[3.2.1]octan-3-yl)-4-(trifluoromethyl)benzyl)-1,8-diazaspiro[4.5]decane-8-carboxylate] | > 75% | < 100 nM | < 25% | > 1000 nM | < 25% | > 1000 nM | ## (## is equal to or greater than 25% but less than 75%) | # (# is <25%) | # (# is <25%) |
| O=C(OC(C(F)(F)F)C(F)(F)F)N1CCC2(CCCN2Cc2ccc(Cl)cc2N2CCCCC2)CC1 [Example 74, 1,1,1,3,3,3-Hexafluoropropan-2-yl 1-(4-chloro-2-(piperidin-1-yl)benzyl)-1,8-diazaspiro[4.5]decane-8-carboxylate] | > 75% | < 100 nM | 25 to 75% | > 1000 nM | < 25% | > 1000 nM | ## (## is equal to or greater than 25% but less than 75%) | # (# is <25%) | # (# is <25%) |
| O=C(OC(C(F)(F)F)C(F)(F)F)N1CCC2(CCCN2Cc2ccc(Cl)cc2N2CC3CCC(C2)O3)CC1 [Example 75, 1,1,1,3,3,3-Hexafluoropropan-2-yl 1-(2-(8-oxa-3-azabicyclo[3.2.1]octan-3-yl)-4-chlorobenzyl)-1,8-diazaspiro[4.5]decane-8-carboxylate] | > 75% | < 100 nM | < 25% | > 1000 nM | < 25% | > 1000 nM | ### (### is ≥75%) | # (# is <25%) | # (# is <25%) |
| O=C(OC(C(F)(F)F)C(F)(F)F)N1CCC2(CCCN2Cc2ccc(Cl)cc2N2CCCC2)CC1 [Example 76, 1,1,1,3,3,3-Hexafluoropropan-2-yl 1-(4-chloro-2-(pyrrolidin-1-yl)benzyl)-1,8-diazaspiro[4.5]decane-8-carboxylate] | > 75% | < 100 nM | < 25% | > 1000 nM | < 25% | > 1000 nM | ### (### is ≥75%) | # (# is <25%) | # (# is <25%) |
| O=C(OC(C(F)(F)F)C(F)(F)F)N1CCC2(CCCN2Cc2ccc(Cl)cc2N2CCOCC2)CC1 [Example 77, 1,1,1,3,3,3-Hexafluoropropan-2-yl 1-(4-chloro-2-morpholinobenzyl)-1,8-diazaspiro[4.5]decane-8-carboxylate] | > 75% | < 100 nM | < 25% | > 1000 nM | < 25% | > 1000 nM | ### (### is ≥75%) | # (# is <25%) | # (# is <25%) |
| O=C(OC(C(F)(F)F)C(F)(F)F)N1CCC2(CCCN2Cc2ccc(C(F)(F)F)cc2N2CCCCC2)CC1 [Example 78, 1,1,1,3,3,3-Hexafluoropropan-2-yl 1-(2-(piperidin-1-yl)-4-(trifluoromethyl)benzyl)-1,8-diazaspiro[4.5]decane-8-carboxylate] | > 75% | < 100 nM | < 25% | > 1000 nM | < 25% | > 1000 nM | ## (## is equal to or greater than 25% but less than 75%) | # (# is <25%) | # (# is <25%) |
| O=C(OC(C(F)(F)F)C(F)(F)F)N1CCC2(CCCN2Cc2cccc(N3CCOCC3)c2Cl)CC1 [Example 79, 1,1,1,3,3,3-Hexafluoropropan-2-yl 1-(2-chloro-3-morpholinobenzyl)-1,8-diazaspiro[4.5]decane-8-carboxylate] | > 75% | < 100 nM | < 25% | > 1000 nM | < 25% | > 1000 nM | ### (### is ≥75%) | # (# is <25%) | # (# is <25%) |
| O=C(OC(C(F)(F)F)C(F)(F)F)N1CCC2(CCCN2Cc2cccc(N3CCCCC3)c2Cl)CC1 [Example 80, 1,1,1,3,3,3-Hexafluoropropan-2-yl 1-(2-chloro-3-(piperidin-1-yl)benzyl)-1,8-diazaspiro[4.5]decane-8-carboxylate] | > 75% | < 100 nM | < 25% | > 1000 nM | < 25% | > 1000 nM | ### (### is ≥75%) | ## (## is equal to or greater than 25% but less than 75%) | ## (## is equal to or greater than 25% but less than 75%) |
| O=C(OC(C(F)(F)F)C(F)(F)F)N1CCC2(CCCN2Cc2cccc(N3CCCC3)c2Cl)CC1 [Example 81, 1,1,1,3,3,3-Hexafluoropropan-2-yl 1-(2-chloro-3-(pyrrolidin-1-yl)benzyl)-1,8-diazaspiro[4.5]decane-8-carboxylate] | > 75% | < 100 nM | < 25% | > 1000 nM | < 25% | > 1000 nM | ### (### is ≥75%) | # (# is <25%) | # (# is <25%) |
| O=C(OC(C(F)(F)F)C(F)(F)F)N1CCC2(CCCN2Cc2cccc(N3CC4CCC(C3)O4)c2Cl)CC1 [Example 82, 1,1,1,3,3,3-Hexafluoropropan-2-yl 1-(3-(8-oxa-3-azabicyclo[3.2.1]octan-3-yl)-2-chlorobenzyl)-1,8-diazaspiro[4.5]decane-8-carboxylate] | > 75% | < 100 nM | < 25% | > 1000 nM | < 25% | > 1000 nM | ### (### is ≥75%) | # (# is <25%) | # (# is <25%) |
| Cc1c(CN2CCCC23CCN(C(=O)OC(C(F)(F)F)C(F)(F)F)CC3)cccc1N1CCCCC1 [Example 84, 1,1,1,3,3,3-Hexafluoropropan-2-yl 1-(2-methyl-3-(piperidin-1-yl)benzyl)-1,8-diazaspiro[4.5]decane-8-carboxylate] | > 75% | 100 to 1000 nM | < 25% | > 1000 nM | < 25% | > 1000 nM | ### (### is ≥75%) | # (# is <25%) | # (# is <25%) |
| Cc1c(CN2CCCC23CCN(C(=O)OC(C(F)(F)F)C(F)(F)F)CC3)cccc1N1CCCC1 [Example 85, 1,1,1,3,3,3-Hexafluoropropan-2-yl 1-(2-methyl-3-(pyrrolidin-1-yl)benzyl)-1,8-diazaspiro[4.5]decane-8-carboxylate] | > 75% | < 100 nM | < 25% | > 1000 nM | < 25% | > 1000 nM | ### (### is ≥75%) | # (# is <25%) | # (# is <25%) |
| Cc1c(CN2CCCC23CCN(C(=O)OC(C(F)(F)F)C(F)(F)F)CC3)cccc1N1CC2CCC(C1)O2 [Example 86, 1,1,1,3,3,3-Hexafluoropropan-2-yl 1-(3-(8-oxa-3-azabicyclo[3.2.1]octan-3-yl)-2-methylbenzyl)-1,8-diazaspiro[4.5]decane-8-carboxylate] | > 75% | < 100 nM | < 25% | > 1000 nM | < 25% | > 1000 nM | ### (### is ≥75%) | # (# is <25%) | # (# is <25%) |
| CCN1CCN(c2cc(C(F)(F)F)ccc2CN2CCCC23CCN(C(=O)OC(C(F)(F)F)C(F)(F)F)CC3)CC1 [Example 87, 1,1,1,3,3,3-Hexafluoropropan-2-yl 1-(2-(4-ethylpiperazin-1-yl)-4-(trifluoromethyl)benzyl)-1,8-diazaspiro[4.5]decane-8-carboxylate] | > 75% | < 100 nM | < 25% | > 1000 nM | < 25% | > 1000 nM | ## (## is equal to or greater than 25% but less than 75%) | # (# is <25%) | # (# is <25%) |
